Two compounds from patent publication US20260226006A1, “INDOLE COMPOUND, PREPARATION METHOD THEREFOR AND USE THEREOF” (SUZHOU MERNA THERAPEUTICS CO. LTD, priority 2023, published 2026) can be followed below.

The test system of one series is HaCat cells. In words: m6A methylation level of human HaCat keratinocytes, EpiQuik m6A RNA methylation quantification kit (Example 20). Format: cell-based. The gist of the method:
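HaCat keratinocytes in DMEM/10% FBS given 50 nM sorafenib, capecitabine, docetaxel or osimertinib, then 400 nM test compound or nicotinamide, and cultured 24 hours at 37° C. Total RNA m6A quantified by EpiQuik ELISA at 450 nm against a standard curve, expressed as percentage of RNA input.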

The subject of the next series is paw plantar skin of rats. Kind of series: Rat models with hand-foot skin reaction, topical ointment (Example 22). The conditions noted are these: for Incidence rate / Incidence rate (successful modeling rate for hand-foot skin reaction): 30 days; for Incidence rate (successful modeling rate for hand-foot skin reaction): modeling drug alone by gavage once daily, no ointment, SD rats. Format: in vivo, SD rats. How it is done:
After adaptive feeding for one week, SD rats (with a body weight of approximately 200 g) were randomly divided into groups according to the body weight, with 12 rats in each group. Modeling drugs (including sorafenib, erlotinib, afatinib, and osimertinib) were respectively dissolved in a solution containing 5% of DMSO, 45% of PEG400, and 50% of H2O, and the modeling drugs were diluted to required concentrations and then administered once daily by gavage at doses shown in Table 3. After administration by gavage for 1 hour, 0.05 g of ointments containing different mass proportions of test compounds were evenly applied to left paws of the rats, a blank matrix ointment was applied to right paws of the rats to serve as a self-control, and no ointment was applied to the rats in a blank control group. After drug application, four limbs were continuously immobilized for 2 hours, then wiped with clean water to remove the residual drugs, removed from immobilization, and restored to free movement. The modeling drugs, the blank matrix ointment, and the ointments containing the test compounds were all administered once daily. After continuous administration for 30 days, the rats were euthanized, and paw plantar skin tissues were collected, fixed in 10% neutral formalin, […]. The ointments for the test compounds were prepared by mixing the compounds, white beeswax, white petrolatum, and light liquid paraffin in specific ratios (weight ratios of 3 ointments were respectively 1:18:58:23, 3:18:57:22, and 10:20:40:30). The blank matrix ointment was prepared by mixing white beeswax, white petrolatum, and light liquid paraffin in a specific ratio (weight ratio of 18:60:22).
Tissue staining: After dewaxing and rehydration, the paw plantar skin tissue sections of the above rats were stained in a hematoxylin solution for several minutes, cleaned, and placed in 1% acid alcohol for soaking until the sections faded to light blue-red. After cleaning with running water for 5 minutes, the sections were stained with eosin for 2-3 minutes, cleaned to remove excess dyes, dehydrated, then permeabilized by adding xylene for several minutes, and sealed and fixed with a neutral resin. The stratum corneum was observed under an optical microscope, and the thickness of the epidermal stratum corneum was measured using Dmetrix software.
Immunohistochemical staining: After dewaxing and hydration, the paw plantar skin tissue sections of the above rats were incubated with 3% H2O2 at room temperature for 30 minutes and blocked with 10% goat serum for 30 minutes after antigen retrieval. A KRT1 antibody (Abcam, ab93652) and a Loricrin antibody (Abcam, ab183646) were added dropwise, the sections were incubated overnight at 4° C., and an HRP secondary antibody (ZSGB-BIO, PV-6001) and a DAB kit (ZSG-BIO, ZLI9017) were added for color development. The sections were re-stained with hematoxylin, cleaned, and sealed and fixed with a neutral resin, and the expression amounts of KRT1 and Loricrin were observed under an optical microscope.
An incidence rate calculation method involves a proportion of animals in each group meeting the above criteria for determining successful modeling, that is, incidence rate=(number of successfully modeled rats/total number of rats in the group)*100%. […]

Setting [1] is: paw plantar skin of modeled rats, topical ointment.
The mark [2] stands for this setting: successfully modeled rats, modeling drug.

The structures appear in SMILES notation.

As to `NC(=O)C1c2[nH]c3ccc(Cl)cc3c2C2CCC1C2` [Compound 5a, (S)-2-chloro-5,6,7,8,9,10-hexahydro-7,10-methanocyclohepta[b]indole-6-carboxamide], the “abnormal increase in the RNA m6A level of human keratinocytes caused by chemotherapeutic drugs and multikinase inhibitors” value in the series with HaCat cells (400 nM compound after 50 nM drug) was “effectively inhibit”. Moreover, the “m6A fold change relative to control group 1” value was 1.2 in the series on HaCat cells (HaCat cells, 50 nM capecitabine + 400 nM test compound, 24 hours); 1.0 in the series with HaCat cells (HaCat cells, 50 nM docetaxel + 400 nM test compound, 24 hours); 1.2 in the series on HaCat cells (HaCat cells, 50 nM osimertinib + 400 nM test compound, 24 hours); 1.0 in the series on HaCat cells (HaCat cells, 50 nM sorafenib + 400 nM test compound, 24 hours). For the same compound, the Incidence rate with paw plantar skin of rats (afatinib 50 mg/kg, 1% compound ointment on left paw, left paw) is recorded as 1/12 (8%); with paw plantar skin of rats (afatinib 50 mg/kg, 1% compound ointment on left paw, right paw (blank matrix ointment)) it was 9/12 (75%); in the series with paw plantar skin of rats (afatinib 50 mg/kg, 3% compound ointment on left paw, left paw), 1/12 (8%); with paw plantar skin of rats (afatinib 50 mg/kg, 3% compound ointment on left paw, right paw (blank matrix ointment)) it was 4/12 (33%); with paw plantar skin of rats (afatinib 50 mg/kg, 10% compound ointment on left paw, left paw), 0/12 (0%); with paw plantar skin of rats (afatinib 50 mg/kg, 10% compound ointment on left paw, right paw (blank matrix ointment)), 1/12 (8%). In addition, the Incidence rate with paw plantar skin of rats (erlotinib 70 mg/kg, 1% compound ointment on left paw, left paw) is recorded as 2/12 (17%); in the series on paw plantar skin of rats (erlotinib 70 mg/kg, 1% compound ointment on left paw, right paw (blank matrix ointment)), 9/12 (75%); in the series on paw plantar skin of rats (erlotinib 70 mg/kg, 3% compound ointment on left paw, left paw), 2/12 (17%); with paw plantar skin of rats (erlotinib 70 mg/kg, 3% compound ointment on left paw, right paw (blank matrix ointment)) it was 5/12 (42%); in the series with paw plantar skin of rats (erlotinib 70 mg/kg, 10% compound ointment on left paw, left paw), 0/12 (0%); in the series on paw plantar skin of rats (erlotinib 70 mg/kg, 10% compound ointment on left paw, right paw (blank matrix ointment)) it was 0/12 (0%). Moreover, the Incidence rate with paw plantar skin of rats (osimertinib 60 mg/kg, 1% compound ointment on left paw, left paw) is 2/12 (17%); with paw plantar skin of rats (osimertinib 60 mg/kg, 1% compound ointment on left paw, right paw (blank matrix ointment)), 9/12 (75%); in the series with paw plantar skin of rats (osimertinib 60 mg/kg, 3% compound ointment on left paw, left paw), 1/12 (8%); in the series on paw plantar skin of rats (osimertinib 60 mg/kg, 3% compound ointment on left paw, right paw (blank matrix ointment)) it was 4/12 (33%); in the series with paw plantar skin of rats (osimertinib 60 mg/kg, 10% compound ointment on left paw, left paw), 0/12 (0%); in the series on paw plantar skin of rats (osimertinib 60 mg/kg, 10% compound ointment on left paw, right paw (blank matrix ointment)), 1/12 (8%). The Incidence rate in the series on paw plantar skin of rats (sorafenib 100 mg/kg, 1% compound ointment on left paw, left paw) is on record as 1/12 (8%); in the series with paw plantar skin of rats (sorafenib 100 mg/kg, 1% compound ointment on left paw, right paw (blank matrix ointment)), 10/12 (83%); with paw plantar skin of rats (sorafenib 100 mg/kg, 3% compound ointment on left paw, left paw), 1/12 (8%); in the series with paw plantar skin of rats (sorafenib 100 mg/kg, 3% compound ointment on left paw, right paw (blank matrix ointment)), 5/12 (42%); in the series on paw plantar skin of rats (sorafenib 100 mg/kg, 10% compound ointment on left paw, left paw) it was 0/12 (0%); with paw plantar skin of rats (sorafenib 100 mg/kg, 10% compound ointment on left paw, right paw (blank matrix ointment)), 2/12 (17%. The “incidence rate of hand-foot skin reaction at a drug application site” value in the series on paw plantar skin of rats (compounds at a mass content of 1% in ointment) is “significantly decrease”. Also, the “incidence rate of hand-foot skin reaction in all paws of the rats” value with paw plantar skin of rats (compounds at mass contents of 3% and 10% in ointment) is on record as “significantly decrease”. Also, in the series on paw plantar skin of rats (setting [1]), the “formation of blisters, inflammatory cell infiltration in the dermis and skin congestion (pathological scoring)” value was “effectively improve”. In addition, the “formation of blisters, inflammatory cell infiltration in the dermis and skin congestion (tissue staining)” value with paw plantar skin of rats (setting [1]) is “effectively improve”. Besides, in the series on paw plantar skin of rats (summary of Examples 21 and 22), the “differentiation of keratinocytes both in vitro and in vivo” value is “effectively inhibit”. Also, the “stratum corneum thickness of the paw plantar skin of the modeled rats” value in the series with paw plantar skin of rats (topical ointment, modeled rats) was “effectively decrease”.

In the case of `CNC(=O)c1cc(Oc2ccc(NC(=O)Nc3ccc(Cl)c(C(F)(F)F)c3)cc2)ccn1` [Sorafenib, sorafenib, reference compound], the “m6A methylation level of human HaCat keratinocytes” value in the series with HaCat cells (50 nM drug alone) is listed as “significantly increase”. The fold induction at 0.05 µM with HaCat cells (Homo sapiens, HaCat cells, 50 nM drug alone, 24 hours, read-out: m6A fold change relative to control group 1) stood at 4.5. Moreover, the “Incidence rate (successful modeling rate for hand-foot skin reaction)” value with paw plantar skin of rats is given as 9/12 (75%). Moreover, in the series on paw plantar skin of rats (listed as sorafenib), the “Incidence rate (successful modeling rate for hand-foot skin reaction)” value is given as 75%. Besides, in the series on paw plantar skin of rats (setting [2]), the “KRT1 and Loricrin in tissues (immunohistochemical staining)” value is recorded as “significantly increased”; the “stratum corneum thickness of the paw plantar skin” value was “significantly higher than that of normal rats”.
